Laboratory results as given in PMC11432087, “Hydrogen Sulfide-Releasing Carbonic Anhydrase Inhibitors Effectively Suppress Cancer Cell Growth” (International Journal of Molecular Sciences, 2024).
Where two headings read alike, the source gives them in different places.

Columns and labels:
hCA II = conditions: stopped-flow CO2 hydrase assay, mean of three assays; cited from earlier work
hCA IV [1] = conditions: stopped-flow CO2 hydrase assay, mean of three assays; cited from earlier work
hCA IX [2] = conditions: stopped-flow CO2 hydrase assay, mean of three assays; cited from earlier work
hCA I = conditions: stopped-flow CO2 hydrase assay, mean of three assays; cited from earlier work
hCA XII = conditions: stopped-flow CO2 hydrase assay, mean of three assays; cited from earlier work
HCT-116 [3] = assay: MTT antiproliferative assay, HCT-116 (normoxia and CoCl2-induced hypoxia); format: cell-based, human; conditions: for IC50: Homo sapiens, MTT, 72 h
Description: (§1) These cell lines were cultured as monolayers in Dulbecco’s Modified Eagle’s Medium (DMEM) supplemented with 10% FBS, 2 mM l-glutamine, 100 U/mL penicillin, and 100 µg/mL streptomycin sulfate. […] The cells were sub-cultured using trypsin/EDTA solution, counted with a hemocytometer, and plated on 96-well plates (5000 cells/well), allowing them to form a semi-confluent monolayer overnight. […] DMSO (100 µL/well) was then added to dissolve the formazan crystals with shaking for 10 min, after which the absorb absorbance was read at 590 nm against no-cell blanks using a FLuo Star Optima microplate reader (BMG technologies, Ortenberg, Germany). Cell proliferation was calculated by comparing the OD values of the DMSO control wells with those of the samples, represented as % proliferation relative to the control.

A549 [4] = assay: Annexin V-FITC/PI dual staining apoptosis assay, A549; format: cell-based, human
Description: (§2) Phosphatidylserine externalization was evaluated using the Annexin V-FITC/PI apoptosis detection kit (BD Biosciences, USA), following the manufacturer’s guidelines. […] Subsequently, the cells were re-suspended in 100 μL of binding buffer with the addition of 1 μL of FITC-Annexin V, followed by a 30-min incubation at 4 °C. After rinsing in binding buffer, the cells were resuspended in 150 μL of binding buffer with the addition of 1 μL of DAPI (1 μg/μL in PBS). Flow cytometry analysis was performed using the BD FACS Canto II flow cytometer and the results were interpreted with FlowJo7.6.4 software (Tree Star, Ashland, USA).

A549 [5] = assay: MTT antiproliferative assay, A549; format: cell-based; conditions: Homo sapiens, normoxic conditions, 72 h
Description: The human triple-negative breast cancer cell line (MDA-MB-231), colon cancer cell line (HCT-116), and lung cancer cell line (A549) used in this study were obtained from the American Type Culture Collection (ATCC). These cell lines were cultured as monolayers in Dulbecco’s Modified Eagle’s Medium (DMEM) supplemented with 10% FBS, 2 mM l-glutamine, 100 U/mL penicillin, and 100 µg/mL streptomycin sulfate. […] The cells were sub-cultured using trypsin/EDTA solution, counted with a hemocytometer, and plated on 96-well plates (5000 cells/well), allowing them to form a semi-confluent monolayer overnight. […]. DMSO (100 µL/well) was then added to dissolve the formazan crystals with shaking for 10 min, after which the absorb absorbance was read at 590 nm against no-cell blanks using a FLuo Star Optima microplate reader (BMG technologies, Ortenberg, Germany). Cell proliferation was calculated by comparing the OD values of the DMSO control wells with those of the samples, represented as % proliferation relative to the control.

hCA IV [6] = assay: Stopped-flow CO2 hydrase inhibition assay, hCA IV; format: biochemical, human; conditions: ratio of KIs
Description: (§3) An Applied Photophysics stopped-flow instrument (Applied Photophysics Ltd, Leatherhead, UK) was used for assaying the CA-catalyzed CO2 hydration activity. Phenol red (at a concentration of 0.2 mM) was used as an indicator, working at the absorbance maximum of 557 nm, with 20 mM Hepes (pH 7.5) as a buffer and 20 mM Na2SO4 for maintaining constant the ionic strength, following the initial rates of the CA-catalyzed CO2 hydration reaction for a period of 10−100 s. The CO2 concentrations ranged from 1.7 to 17 mM for the determination of the kinetic parameters and inhibition constants. For each inhibitor, at least six traces of the initial 5−10% of the reaction were used for determining the initial velocity. The uncatalyzed rates were determined in the same manner and subtracted from the total observed rates. Stock solutions of inhibitor (0.1 mM) were prepared in distilled−deionized water and dilutions up to 0.01 nM were made thereafter with the assay buffer. Inhibitor and enzyme solutions were preincubated together for 15 min at room temperature before the assay to allow for the formation of the E−I complex. The inhibition constants were obtained by nonlinear least-squares methods using Prism 7 (GraphPad Software, La Jolla, CA, USA) and the Cheng−Prusoff equation and represent the mean of at least three different determinations. The enzyme concentrations were in the range of 3–11 nM. All hCA isoforms were recombinant ones obtained in-house.

HCT-116 [7] = assay: Annexin V-FITC/PI dual staining apoptosis assay, HCT-116; format: cell-based, human
Description: as §2

[8] = compound 150 µM, rat liver homogenate, 37 °C; cited from earlier work
A549 [9] = assay: Cell cycle analysis by DNA flow cytometry, A549; format: cell-based, human; conditions: A549, 24 h at IC50 concentration
Description: (§4) Following treatment, cells were washed twice with ice-cold phosphate-buffered saline (PBS). Subsequently, the treated cells were harvested through centrifugation, fixed in ice-cold 70% (v/v) ethanol, washed with PBS, re-suspended in 100 μg/mL RNase, stained with 40 μg/mL propidium iodide (PI), and subjected to flow cytometry analysis using FACS Calibur (Becton Dickinson, Franklin Lakes, NJ, USA). The cell cycle distributions were calculated using CellQuest software 5.1 (Becton Dickinson).

MDA-MB-231 = assay: MTT antiproliferative assay, MDA-MB-231; format: cell-based; conditions: Homo sapiens, normoxic conditions, 72 h
Description: as §1

hCA IX [10] = assay: Stopped-flow CO2 hydrase inhibition assay, hCA IX; format: biochemical, human; conditions: ratio of KIs
Description: as §3

HCT-116 [11] = assay: Cell cycle analysis by DNA flow cytometry, HCT-116; format: cell-based, human; conditions: HCT-116, 24 h at IC50 concentration
Description: as §4

[12] = A549, treated at IC50 concentration
[13] = HCT-116, treated at IC50 concentration

In the case of `COc1ccc(CN(CCc2ccc(S(N)(=O)=O)cc2)C(=O)c2ccc(-c3cssc3=S)cc2)cc1` [Compound 27], the Ki (hCA II) is given as 589 nM, the Ki (hCA IV [1]) is given as 1590 nM and the Ki (hCA IX [2]) is given as 50.3 nM. For the same compound, the Ki (hCA I) was 2220 nM and the Ki (hCA XII) was 76.4 nM.
In the case of `COc1ccc(CN(CCc2ccc(S(N)(=O)=O)cc2)C(=O)c2ccc(-c3cssc3=S)cc2)cc1OC` [Compound 28], the Ki (hCA II) is listed as 218 nM, the Ki (hCA IV [1]) is listed as 293 nM and the Ki (hCA IX [2]) is listed as 18.6 nM. The Ki (hCA I) was 890 nM and the Ki (hCA XII) was 8.9 nM.
With `NS(=O)(=O)c1ccc(CCN(Cc2cccc3ccccc23)C(=O)c2ccc(-c3cssc3=S)cc2)cc1` [Compound 30] the “IC50 Normoxia / IC50 Hypoxia” value (HCT-116 [3]; HCT-116) was 2.5, the “Increase in cytotoxicity under hypoxia compared to normoxia” value (HCT-116 [3]; HCT-116, chemically induced hypoxia) was 2 fold and the “Increase in activity concerning Staurosporine” value (HCT-116 [3]; HCT-116, hypoxic conditions) was 10 fold. For the same compound, the “Increase in activity concerning Staurosporine” value (HCT-116 [3]; HCT-116, normoxic conditions) was 5 fold, the IC50 (HCT-116 [3]; HCT-116, chemically induced hypoxia with CoCl2·6H2O, read-out: IC50 HCT-116 (Hypoxia)) was 930 ± 20 nM and the IC50 (HCT-116 [3]; HCT-116, normoxic conditions, read-out: IC50 HCT-116 (Normoxia)) was 2300 ± 140 nM. The “Fold increase in overall apoptosis compared to untreated control” value (A549 [4]; A549) was 19.9 fold, the “Early Apoptosis (Lower Right %)” value (A549 [4]; [12]) was 5.36% and the “Late Apoptosis (Upper Right %)” value (A549 [4]; [12]) was 18.59%. The Total apoptosis (A549 [4]; [12]) was 23.95%, the IC50 (A549 [5]) was 1780 ± 40 nM and the “hCA II/hCA IV selectivity ratio” value (hCA IV [6]) was 18.3. The “Fold increase in overall apoptosis compared to untreated control” value (HCT-116 [7]; HCT-116) was 32.9 fold, the “Early Apoptosis (Lower Right %)” value (HCT-116 [7]; [13]) was 10.23% and the “Late Apoptosis (Upper Right %)” value (HCT-116 [7]; [13]) was 15.49%. For the same compound, the Total apoptosis (HCT-116 [7]; [13]) was 25.72%, the “H2S release half-life t/2” value [8] was 5.0 min and the Ki (hCA II) was 4460 nM. The Ki (hCA IV [1]) was 244 nM, the “%G0-G1” value (A549 [9]) was 22.93% and the “%G2/M” value (A549 [9]) was 34.96%. The “%S” value (A549 [9]) was 20.77%, the “%Sub-G1” value (A549 [9]) was 21.34% and the IC50 (MDA-MB-231) was 9590 ± 310 nM. The “hCA II/hCA IX selectivity ratio” value (hCA IX [10]) was 286, the Ki (hCA I) was over 10000 nM and the Ki (hCA XII) was 7 nM. For the same compound, the “%G0-G1” value (HCT-116 [11]) was 28.22%, the “%G2/M” value (HCT-116 [11]) was 31.39% and the “%S” value (HCT-116 [11]) was 18.4%. The “%Sub-G1” value (HCT-116 [11]) was 21.99%.
For `NS(=O)(=O)c1ccc(CCN(Cc2csc3ccccc23)C(=O)c2ccc(-c3cssc3=S)cc2)cc1` [Compound 31], the Ki (hCA II) is given as 2480 nM, the Ki (hCA IX [2]) is given as 2.4 nM and the Ki (hCA I) is given as over 10000 nM. The Ki (hCA XII) was 8 nM.
In the case of `NS(=O)(=O)c1ccc(CCN(CCc2ccccc2)C(=O)c2ccc(-c3cssc3=S)cc2)cc1` [Compound 32], the Ki (hCA II) is given as 661 nM, the Ki (hCA IV [1]) is given as 243 nM and the Ki (hCA IX [2]) is given as 126 nM. The Ki (hCA I) was 4390 nM and the Ki (hCA XII) was 9.6 nM.
For `N#CCCN(CCc1ccc(S(N)(=O)=O)cc1)C(=O)c1ccc(-c2cssc2=S)cc1` [Compound 33], the Ki (hCA II) is given as 60.4 nM, the Ki (hCA IV [1]) is given as 523 nM and the Ki (hCA IX [2]) is given as 28.7 nM. The Ki (hCA I) was 429 nM and the Ki (hCA XII) was 9.1 nM.
In the case of `CN[C@@H]1C[C@H]2O[C@@](C)([C@@H]1OC)n1c3ccccc3c3c4c(c5c6ccccc6n2c5c31)C(=O)NC4` [Staurosporine, reference compound], the IC50 (A549 [5]) is reported as 5110 ± 190 nM.
